The record followed here is US11730720B2, “ALK5 inhibitors” (THERAVANCE BIOPHARMA R&D IP, LLC, priority 2018, dated 2023).

pKi: −log10 of the molar value. Bounds are passed on as bounds.

Usually pKi stands for −log10 of the Ki, conventionally taken in molar units.

Experiment [1] has as its target T1, recombinant human ALK5 (TGF-βR1) protein (Homo sapiens, UniProt P36897).
T1 construct: purchased Life Technologies PR9075A
T1 sequence (P36897 34-503): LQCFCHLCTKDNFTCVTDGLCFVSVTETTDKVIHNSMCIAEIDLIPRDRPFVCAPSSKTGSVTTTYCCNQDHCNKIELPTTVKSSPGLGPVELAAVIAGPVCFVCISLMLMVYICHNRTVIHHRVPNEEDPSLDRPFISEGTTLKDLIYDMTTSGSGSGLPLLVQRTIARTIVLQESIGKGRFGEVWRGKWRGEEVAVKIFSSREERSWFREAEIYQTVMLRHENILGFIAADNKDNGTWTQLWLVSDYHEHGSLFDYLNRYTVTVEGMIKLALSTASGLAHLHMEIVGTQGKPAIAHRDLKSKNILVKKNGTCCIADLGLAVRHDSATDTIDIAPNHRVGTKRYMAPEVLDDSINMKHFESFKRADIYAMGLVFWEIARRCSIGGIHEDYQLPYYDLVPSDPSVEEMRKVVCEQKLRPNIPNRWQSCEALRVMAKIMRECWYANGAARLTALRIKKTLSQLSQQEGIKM
Description: Biochemical ALK5 (TGF-βR1) assay to measure pKi (LANCE Ultra ULight kinase assay). As to conditions: apparent pKi, converted from pIC50 using the Cheng-Prusoff equation. As for the experimental part: Example 254: Biochemical ALK5 (TGF-βR1) Assay to Measure pKi
The assays were performed in a 384-well plate (24 columns×16 wells/rows). An Echo® 550 Liquid Handler (Labcyte) was used to prepare various intermediate concentrations of compounds of the present disclosure in 100% DMSO. From the intermediate concentrations, a range of concentrations (from 10 μM to 25 pM corresponding to volumes up to 105 nL) were prepared and ejected into a final assay plate to be used to create individual dose response curves for each of the subject compounds. To a separate column within the assay plate, 105 nL of DMSO in each well was used to establish a maximum assay signal. Additionally, 105 nL of 100 μM SD-208, a selective TGF-βR1 inhibitor (Catalog #S7624, Selleck Chemicals), was used in another column of wells to establish a minimal assay signal.
With a multidrop dispenser, 8 μL of enzyme mixture (1.25× final) was added to each well. The enzyme mixture consisted of 250 pM ALK5 enzyme and 62.5 nM peptide substrate (LANCE® (lanthanide chelate excite) Ultra ULight™-DNA Topoisomerase 2-alpha (Thr1342)) prepared in assay buffer (50 mM HEPES, 10 mM MgCl2, 1 mM EGTA, 0.01% Tween-20, pH 7.5 at room temperature) with 2 mM DTT added prior to use. The plate was then sealed with an adhesive seal and allowed to equilibrate for 60 minutes at room temperature.
Next, 2 μL of 125 μM ATP (5× final, 125 μM ATP prepared in assay buffer with 2 mM DTT) was added to the incubated mixtures, covered with a MicroClime® Environmental Lid (Product No. LLS-0310, Labcyte) and immediately transferred to 37° C. The reactions were allowed to proceed at 37° C. for 60 minutes before terminating with the addition of 10 μL of detection antibody (LANCE® (lanthanide chelate excite) Ultra Europium-anti-phospo-DNA Topoisomerase 2-alpha (Thr1342)) in detection mixture (12 mM EDTA, 4 nM detection antibody prepared in detection buffer (50 mM Tris-HCl, 150 mM NaCl, 0.5% BSA (Fraction V), pH 7.0)) at room temperature. The plate was then read on a Perkin Elmer EnVision Plate Reader using europium specific reader settings with excitation and emission wavelengths set to 320 or 340 nm and 665 nm, respectively.
For dose-response analyses, percent inhibition versus compound concentrations were plotted, and pIC50 values were determined from a 4-parameter robust fit model with GraphPad Prism V5 Software (GraphPad Software, Inc., La Jolla, Calif.). This model obtains pIC50 values by fitting the sigmodial dose-response (variable slope) equation to the data. Results were expressed as pIC50 (negative logarithm of IC50) and subsequently converted to pKi (negative logarithm of dissociate constant, K) using the Cheng-Prusoff equation.
The higher the value of pKi (lower value of Ki), the greater the inhibition of ALK5 activity.
Background: TR-FRET usually uses a lanthanide donor and a delayed reading to cut background.

Experiment [2] relates to TGF-β-stimulated SMAD3 phosphorylation in BEAS-2B cells. Description: Cellular ALK5 potency assay, inhibition of TGF-β stimulated pSMAD3 formation in BEAS-2B cells. In kind it is cell-based. As to conditions: Homo sapiens, inhibition of TGF-β (10 ng/mL) stimulated pSMAD3 formation, 1 hour compound incubation, read-out: BEAS2B pIC50 (converted). The procedure: Example 255: Cellular ALK5 Potency Assay to Measure pIC50, Inhibition of TGF-β Stimulated pSMAD3 Formation in BEAS-2B Cells
The potency of compounds of the present disclosure for inhibition of TGF-β-stimulated SMAD3 phosphorylation was measured in BEAS-2B cells, a human lung epithelial cell line. TGF-β signals through activin receptor-like kinase 5 (ALK5) immediately prior to SMAD3 phosphorylation.
BEAS-2B cells were grown using 50% DMEM (Life Technologies) and 50% F-12 (Life Technologies) media, supplemented with 10% Fetal Bovine Serum (ATCC), 25 mM HEPES (Life Technologies), and 1×Pen-Strep (Life Technologies). Cells were cultured in a humidified incubator set at 37° C., 5% CO2, and trypsonized using 0.25% Trypsin with 0.5% polyvinylpyrrolidone (PVP).
For the assay, BEAS-2B cells were seeded at 7,500 cells/well (25 μL/well) in a 384-well plate and cultured overnight. Before dosing, growth media was aspirated and the wells were rinsed with HBSS Buffer (HBSS with Calcium and Magnesium, Life Technologies) supplemented with 25 mM HEPES (Life Technologies) and 1% Bovine Serum Albumin (Roche). Compounds were serially diluted in DMSO, then further diluted with supplemented HBSS Buffer (50 μL/well) to create a compound plate 3× of the final assay concentration, at 0.3% DMSO. The diluted compounds were then added to the cells (8 μL/well) and incubated at 37° C., 5% CO2 for 1 hour. After the compound incubation, TGF-β (R&D Systems) reconstituted in supplemented HBSS Buffer was added to the cells ([…], final concentration 10 ng/mL) and incubated for a further 30 minutes, after which the cells were immediately lysed with AlphaLISA lysis buffer (PerkinElmer). AlphaLISA Acceptor and Detector beads (PerkinElmer) were added 2 hours apart, then incubated overnight to be read the next day. The potency of the compound was determined through analysis of dose-dependent quantified changes in pSMAD3 signal from baseline (non-compound treated TGF-β stimulated cells). Data are expressed as pIC50 (negative decadic logarithm IC50) values.

In the case of `CN(C)C1CCN(c2cnc3ccc(-c4c[nH]nc4-c4cc(Cl)ccc4F)nc3c2)C1` (racemic) [Compound 1-34, rac-(3S)-1-[6-[3-(5-chloro-2-fluoro-phenyl)-1H-pyrazol-4-yl]-1,5-naphthyridin-3-yl]-N,N-dimethyl-pyrrolidin-3-amine], the negative logarithm of the Ki (pKi) in experiment [1] is at least 10.50. Also, the IC50 in experiment [2] is 25.1 to 158 nM.
On to `Fc1ccc(Cl)cc1-c1n[nH]cc1-c1ccc2ncc(N3CCC(N4CCCCC4)C3)cc2n1` (racemic) [Compound 1-39, 2-[3-(5-chloro-2-fluoro-phenyl)-1H-pyrazol-4-yl]-7-[rac-(3R)-3-(1-piperidyl)pyrrolidin-1-yl]-1,5-naphthyridine], for which the pKi in experiment [1] is 9.50 to 10.40. Further, the IC50 in experiment [2] was at most 20 nM.
Take `CN1C[C@H]2C[C@@H]1CN2c1cnc2ccc(-c3c[nH]nc3-c3cc(Cl)ccc3F)nc2c1` (racemic) [Compound 1-42, 2-[3-(5-chloro-2-fluoro-phenyl)-1H-pyrazol-4-yl]-7-[rac-(1R,4R)-5-methyl-2,5-diazabicyclo[2.2.1]heptan-2-yl]-1,5-naphthyridine]: the pKi in experiment [1] was 7.50 to 8.40. The IC50 in experiment [2] is 25.1 to 158 nM.
For the compound `NC(=O)C1CN(c2cnc3ccc(-c4c[nH]nc4-c4cc(Cl)ccc4F)nc3c2)CCN1` (racemic) [Compound 1-50, rac-(2S)-4-[6-[3-(5-chloro-2-fluoro-phenyl)-1H-pyrazol-4-yl]-1,5-naphthyridin-3-yl]piperazine-2-carboxamide], the negative-log Ki (pKi) in experiment [1] was 8.50 to 9.40. Besides, in experiment [2], the IC50 is 25.1 to 158 nM.
For the compound `CNC(=O)C1CN(c2cnc3ccc(-c4c[nH]nc4-c4cc(Cl)ccc4F)nc3c2)CCN1` (racemic) [Compound 1-51, rac-(2R)-4-[6-[3-(5-chloro-2-fluoro-phenyl)-1H-pyrazol-4-yl]-1,5-naphthyridin-3-yl]-N-methyl-piperazine-2-carboxamide], in experiment [1], the negative-log Ki (pKi) is 9.50 to 10.40. The IC50 in experiment [2] is 25.1 to 158 nM.
In the case of `C[C@@H]1CN(c2cnc3ccc(-c4c[nH]nc4-c4cc(Cl)ccc4F)nc3c2)[C@H](C)CN1C` (racemic) [Compound 1-75, 2-[3-(5-chloro-2-fluoro-phenyl)-1H-pyrazol-4-yl]-7-[rac-(2R,5R)-2,4,5-trimethylpiperazin-1-yl]-1,5-naphthyridine], the pKi in experiment [1] is 7.50 to 8.40. The IC50 in experiment [2] is 25.1 to 158 nM.
On to `CNC(=O)C1CN(c2cnc3ccc(-c4c[nH]nc4-c4cc(Cl)ccc4F)nc3c2)CCN1C` (racemic) [Compound 1-77, rac-(2R)-4-[6-[3-(5-chloro-2-fluoro-phenyl)-1H-pyrazol-4-yl]-1,5-naphthyridin-3-yl]-N,1-dimethyl-piperazine-2-carboxamide], for which the pKi in experiment [1] was 9.50 to 10.40. Besides, in experiment [2], the IC50 was 25.1 to 158 nM.
Taken in the same sequence, the figures for `CNC(=O)C1CN(c2cnc3ccc(-c4c[nH]nc4-c4cc(Cl)ccc4F)nc3c2)CCN1C(C)C` (racemic) [Compound 1-78, rac-(2R)-4-[6-[3-(5-chloro-2-fluoro-phenyl)-1H-pyrazol-4-yl]-1,5-naphthyridin-3-yl]-1-isopropyl-N-methyl-piperazine-2-carboxamide] were 9.50 to 10.40 and 25.1 to 158 nM.
Turning to `CN1CCC(N(C)c2cnc3ccc(-c4c[nH]nc4-c4cc(Cl)ccc4F)nc3c2)C1` (racemic) [Compound 1-79, 6-[3-(5-chloro-2-fluoro-phenyl)-1H-pyrazol-4-yl]-N-methyl-N-[rac-(3R)-1-methylpyrrolidin-3-yl]-1,5-naphthyridin-3-amine], the negative-log Ki (pKi) in experiment [1] was 9.50 to 10.40. In addition, the IC50 in experiment [2] is at most 20 nM.
Regarding `COCC1CN(c2cnc3ccc(-c4c[nH]nc4-c4cc(Cl)ccc4F)nc3c2)CCN1C` (racemic) [Compound 1-80, 2-[3-(5-chloro-2-fluoro-phenyl)-1H-pyrazol-4-yl]-7-[rac-(3R)-3-(methoxymethyl)-4-methyl-piperazin-1-yl]-1,5-naphthyridine], in experiment [1], the negative logarithm of the Ki (pKi) is 8.50 to 9.40. Besides, the IC50 in experiment [2] was 25.1 to 158 nM.
Take `CNC(=O)C1CN(c2cnc3ccc(-c4c[nH]nc4-c4cc(Cl)ccc4F)nc3c2)CCN1C` (racemic) [Compound 1-81, rac-(2S)-4-[6-[3-(5-chloro-2-fluoro-phenyl)-1H-pyrazol-4-yl]-1,5-naphthyridin-3-yl]-N,1-dimethyl-piperazine-2-carboxamide]: the negative-log Ki (pKi) in experiment [1] was 8.50 to 9.40.
`CC(C)N1CCCN(c2cnc3ccc(-c4c[nH]nc4-c4cc(Cl)ccc4F)nc3c2)CC1C` (racemic) [Compound 1-82, 2-[3-(5-chloro-2-fluoro-phenyl)-1H-pyrazol-4-yl]-7-[rac-(3S)-4-isopropyl-3-methyl-1,4-diazepan-1-yl]-1,5-naphthyridine]: the negative logarithm of the Ki (pKi) in experiment [1] is 8.50 to 9.40. In addition, the IC50 in experiment [2] was 25.1 to 158 nM.
For `CN(C)C1CCN(c2cnc3ccc(-c4nc[nH]c4-c4cc(Cl)ccc4F)nc3c2)C1` (racemic) [Compound 2-11, rac-(3S)-1-(6-[5-(5-chloro-2-fluoro-phenyl)-1H-imidazol-4-yl]-1,5-naphthyridin-3-yl]-N,N-dimethyl-pyrrolidin-3-amine], the pKi in experiment [1] is 9.50 to 10.40. In addition, the IC50 in experiment [2] was at most 20 nM.
The like results for `CN(C)C1CCN(c2cnc3ccc(-c4c(-c5cc(Cl)ccc5F)nc5ccccn45)nc3c2)C1` (racemic) [Compound 3-4, rac-(3S)-1-[6-[2-(5-chloro-2-fluoro-phenyl)imidazo[1,2-a]pyridin-3-yl]-1,5-naphthyridin-3-yl]-N,N-dimethyl-pyrrolidin-3-amine] were, in that order, 9.50 to 10.40 and 200 to 1260 nM.
In the case of `Fc1cc(F)c(-c2n[nH]cc2-c2ccc3ncc(N4CCC(N5CCCCC5)C4)cc3n2)cc1Cl` (racemic) [Compound 6-21, 2-[3-(5-chloro-2,4-difluoro-phenyl)-1H-pyrazol-4-yl]-7-[rac-(3R)-3-(1-piperidyl)pyrrolidin-1-yl]-1,5-naphthyridine], the negative logarithm of the Ki (pKi) in experiment [1] was 9.50 to 10.40. For the same compound, the IC50 in experiment [2] was 25.1 to 158 nM.
